Laboratory results from ChEMBL document CHEMBL4364276, “Discovery of 4-phenyl-2H-benzo[b][1,4]oxazin-3(4H)-one derivatives as potent and orally active PI3K/mTOR dual inhibitors” (Eur J Med Chem, 2019).

Experiments:
[1] = biological target: Cyclin-Y/Cyclin-dependent kinase 16 (Homo sapiens) (UniProt Q00536+Q8ND76); assay: Inhibition of human CDK16/cyclin-Y at 100 nM using RB protein as substrate by [gamma-33P]-ATP assay; type: protein-complex assay
[2] = biological target: Serine/threonine-protein kinase 32C (Homo sapiens) (UniProt Q86UX6); assay: Inhibition of human STK32C at 100 nM using MBP as substrate by [gamma-33P]-ATP assay
Chain of Serine/threonine-protein kinase 32C (Homo sapiens) (Q86UX6 whole entry): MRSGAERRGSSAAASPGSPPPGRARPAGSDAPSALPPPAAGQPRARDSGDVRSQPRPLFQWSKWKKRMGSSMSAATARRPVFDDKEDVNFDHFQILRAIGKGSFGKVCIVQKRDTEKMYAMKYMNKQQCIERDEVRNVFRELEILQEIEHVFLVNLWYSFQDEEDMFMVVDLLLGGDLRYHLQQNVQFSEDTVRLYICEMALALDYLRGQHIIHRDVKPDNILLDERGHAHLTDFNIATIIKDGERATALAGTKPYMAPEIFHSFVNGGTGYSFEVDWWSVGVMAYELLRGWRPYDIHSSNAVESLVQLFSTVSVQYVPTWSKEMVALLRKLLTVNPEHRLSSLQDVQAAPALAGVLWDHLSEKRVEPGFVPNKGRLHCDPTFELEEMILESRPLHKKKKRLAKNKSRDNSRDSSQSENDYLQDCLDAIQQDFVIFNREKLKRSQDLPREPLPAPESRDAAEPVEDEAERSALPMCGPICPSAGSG

[3] = biological target: Tyrosine-protein kinase CSK (Homo sapiens) (UniProt P41240); assay: Inhibition of human CSK at 100 nM using poly[Glu:Tyr] (4:1) as substrate by [gamma-33P]-ATP assay
[4] = biological target: Calcium/calmodulin-dependent protein kinase type II subunit alpha (Homo sapiens) (UniProt Q9UQM7); assay: Inhibition of human CAMK2A at 100 nM using KKALRRQETVDAL as substrate by [gamma-33P]-ATP assay
Chain of Calcium/calmodulin-dependent protein kinase type II subunit alpha (Homo sapiens) (Q9UQM7 whole entry): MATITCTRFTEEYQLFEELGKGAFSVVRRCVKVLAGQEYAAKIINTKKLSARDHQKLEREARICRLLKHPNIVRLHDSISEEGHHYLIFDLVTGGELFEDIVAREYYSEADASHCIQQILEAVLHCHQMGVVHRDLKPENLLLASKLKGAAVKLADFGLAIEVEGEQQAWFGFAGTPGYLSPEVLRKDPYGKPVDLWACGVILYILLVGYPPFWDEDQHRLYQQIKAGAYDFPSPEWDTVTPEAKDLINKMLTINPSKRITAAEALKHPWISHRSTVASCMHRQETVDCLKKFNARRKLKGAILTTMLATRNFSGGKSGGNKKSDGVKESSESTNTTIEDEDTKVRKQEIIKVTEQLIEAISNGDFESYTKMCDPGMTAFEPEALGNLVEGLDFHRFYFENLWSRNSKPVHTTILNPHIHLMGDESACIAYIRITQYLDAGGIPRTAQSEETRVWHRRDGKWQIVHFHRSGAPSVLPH

[5] = biological target: Serine/threonine-protein kinase TAO2 (Homo sapiens) (UniProt Q9UL54); assay: Inhibition of human TAOK2 at 100 nM using MBP as substrate by [gamma-33P]-ATP assay
[6] = biological target: G protein-coupled receptor kinase 4 (Homo sapiens) (UniProt P32298); assay: Inhibition of human GRK4 at 100 nM using casein as substrate by [gamma-33P]-ATP assay
Chain of G protein-coupled receptor kinase 4 (Homo sapiens) (P32298 whole entry, looked up, canonical isoform): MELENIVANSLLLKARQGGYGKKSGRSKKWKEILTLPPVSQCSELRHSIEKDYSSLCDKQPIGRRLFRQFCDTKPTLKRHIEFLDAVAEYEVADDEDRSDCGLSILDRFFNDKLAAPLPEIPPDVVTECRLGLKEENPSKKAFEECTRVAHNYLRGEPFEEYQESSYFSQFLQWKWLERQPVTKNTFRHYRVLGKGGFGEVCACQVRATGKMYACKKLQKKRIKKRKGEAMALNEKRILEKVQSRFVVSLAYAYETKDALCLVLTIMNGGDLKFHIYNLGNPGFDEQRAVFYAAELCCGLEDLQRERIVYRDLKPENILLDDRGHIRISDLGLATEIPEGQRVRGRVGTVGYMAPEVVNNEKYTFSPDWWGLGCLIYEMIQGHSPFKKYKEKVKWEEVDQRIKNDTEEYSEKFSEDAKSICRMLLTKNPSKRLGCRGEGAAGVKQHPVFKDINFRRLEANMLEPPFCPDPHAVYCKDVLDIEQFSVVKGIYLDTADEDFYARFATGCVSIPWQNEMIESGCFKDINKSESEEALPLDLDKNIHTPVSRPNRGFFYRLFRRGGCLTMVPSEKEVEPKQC

[7] = biological target: Casein kinase I isoform delta (Homo sapiens) (UniProt P48730); assay: Inhibition of human CK1D at 100 nM using KRRRAL[pS]VASLPGL as substrate by [gamma-33P]-ATP assay
Chain of Casein kinase I isoform delta (Homo sapiens) (P48730 whole entry, looked up, canonical isoform): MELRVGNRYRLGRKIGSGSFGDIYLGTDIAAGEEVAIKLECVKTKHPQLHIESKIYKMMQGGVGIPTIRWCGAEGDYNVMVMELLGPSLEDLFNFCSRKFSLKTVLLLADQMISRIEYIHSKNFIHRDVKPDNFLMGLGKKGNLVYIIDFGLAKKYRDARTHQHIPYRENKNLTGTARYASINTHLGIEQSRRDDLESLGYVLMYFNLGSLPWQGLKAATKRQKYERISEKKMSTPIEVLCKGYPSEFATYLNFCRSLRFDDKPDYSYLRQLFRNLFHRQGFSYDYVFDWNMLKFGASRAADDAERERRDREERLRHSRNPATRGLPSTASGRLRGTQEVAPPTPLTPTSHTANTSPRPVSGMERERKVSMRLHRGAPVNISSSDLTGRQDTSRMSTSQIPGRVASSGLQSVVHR

[8] = biological target: CDK2/Cyclin-E2 (Homo sapiens) (UniProt P24941+O96020); assay: Inhibition of human CDK2/cyclin-E2 at 100 nM using histone H1 as substrate by [gamma-33P]-ATP assay; type: protein-complex assay
[9] = biological target: TGF-beta receptor type-1 (Homo sapiens) (UniProt P36897); assay: Inhibition of human ALK5 at 100 nM using casein as substrate by [gamma-33P]-ATP assay
Chain of TGF-beta receptor type-1 (Homo sapiens) (P36897 whole entry): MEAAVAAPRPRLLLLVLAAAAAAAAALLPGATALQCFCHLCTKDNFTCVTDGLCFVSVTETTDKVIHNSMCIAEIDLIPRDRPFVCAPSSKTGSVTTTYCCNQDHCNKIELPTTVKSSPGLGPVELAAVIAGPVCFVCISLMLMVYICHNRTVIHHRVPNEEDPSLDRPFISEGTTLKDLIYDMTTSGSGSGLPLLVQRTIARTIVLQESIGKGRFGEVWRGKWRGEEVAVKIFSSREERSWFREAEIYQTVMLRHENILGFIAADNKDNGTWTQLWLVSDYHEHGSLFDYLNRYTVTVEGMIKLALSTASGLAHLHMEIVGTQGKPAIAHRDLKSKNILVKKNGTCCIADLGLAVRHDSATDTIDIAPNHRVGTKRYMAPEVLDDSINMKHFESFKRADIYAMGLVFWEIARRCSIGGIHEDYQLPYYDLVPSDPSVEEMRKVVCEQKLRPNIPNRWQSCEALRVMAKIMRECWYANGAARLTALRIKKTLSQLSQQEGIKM

[10] = biological target: cGMP-dependent protein kinase 1 (Homo sapiens) (UniProt Q13976); assay: Inhibition of human PKG1beta at 100 nM using LRRASLG as substrate by [gamma-33P]-ATP assay
[11] = biological target: CDK2/Cyclin A2 (Homo sapiens) (UniProt P24941+P20248); assay: Inhibition of human CDK2/cyclin-A at 100 nM using histone H1 as substrate by [gamma-33P]-ATP assay; type: protein-complex assay
[12] = biological target: Tyrosine-protein kinase Srms (Homo sapiens) (UniProt Q9H3Y6); assay: Inhibition of human SRMS at 100 nM using poly[Glu:Tyr] (4:1) as substrate by [gamma-33P]-ATP assay
[13] = biological target: Myosin-IIIa (Homo sapiens) (UniProt Q8NEV4); assay: Inhibition of human MYO3A at 100 nM using MBP as substrate by [gamma-33P]-ATP assay
[14] = biological target: LIM domain kinase 1 (Homo sapiens) (UniProt P53667); assay: Inhibition of human LIMK1 at 100 nM using cofilin as substrate by [gamma-33P]-ATP assay
Chain of LIM domain kinase 1 (Homo sapiens) (P53667 whole entry, looked up, the tested form may be a part): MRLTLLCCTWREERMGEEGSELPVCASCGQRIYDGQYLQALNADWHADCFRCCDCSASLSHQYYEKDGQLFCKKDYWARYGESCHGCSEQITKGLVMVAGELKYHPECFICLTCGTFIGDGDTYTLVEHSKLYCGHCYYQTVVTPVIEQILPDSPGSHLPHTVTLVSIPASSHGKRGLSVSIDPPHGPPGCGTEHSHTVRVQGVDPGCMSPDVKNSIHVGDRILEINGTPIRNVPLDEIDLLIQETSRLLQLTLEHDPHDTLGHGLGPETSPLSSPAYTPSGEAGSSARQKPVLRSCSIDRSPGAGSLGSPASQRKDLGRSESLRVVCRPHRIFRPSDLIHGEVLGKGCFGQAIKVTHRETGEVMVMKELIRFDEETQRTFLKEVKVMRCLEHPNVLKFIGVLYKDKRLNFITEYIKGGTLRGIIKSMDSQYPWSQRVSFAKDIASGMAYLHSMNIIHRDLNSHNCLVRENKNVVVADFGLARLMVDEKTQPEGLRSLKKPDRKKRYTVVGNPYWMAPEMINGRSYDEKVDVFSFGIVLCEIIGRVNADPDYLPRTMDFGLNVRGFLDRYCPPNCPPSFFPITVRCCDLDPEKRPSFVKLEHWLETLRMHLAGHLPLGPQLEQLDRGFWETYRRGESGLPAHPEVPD

[15] = biological target: Ribosomal protein S6 kinase alpha-1 (Homo sapiens) (UniProt Q15418); assay: Inhibition of human RSK1 at 100 nM using KKLNRTLSVA as substrate by [gamma-33P]-ATP assay
[16] = biological target: Muscle, skeletal receptor tyrosine-protein kinase (Homo sapiens) (UniProt O15146); assay: Inhibition of human MUSK at 100 nM using MBP as substrate by [gamma-33P]-ATP assay
[17] = biological target: CDK9/cyclin T1 (Homo sapiens) (UniProt O60563+P50750); assay: Inhibition of human CDK9/cyclin-T1 at 100 nM using KTFCGTPEYLAPEVRREPRILSEEEQEMFRDFDYIADWC as substrate by [gamma-33P]-ATP assay; type: protein-complex assay
[18] = biological target: Serine/threonine-protein kinase Nek9 (Homo sapiens) (UniProt Q8TD19); assay: Inhibition of human NEK9 at 100 nM using casein as substrate by [gamma-33P]-ATP assay
[19] = biological target: Dual specificity tyrosine-phosphorylation-regulated kinase 3 (Homo sapiens) (UniProt O43781); assay: Inhibition of human DYRK3 at 100 nM using RRRFRPASPLRGPPK as substrate by [gamma-33P]-ATP assay
Chain of Dual specificity tyrosine-phosphorylation-regulated kinase 3 (Homo sapiens) (O43781 whole entry): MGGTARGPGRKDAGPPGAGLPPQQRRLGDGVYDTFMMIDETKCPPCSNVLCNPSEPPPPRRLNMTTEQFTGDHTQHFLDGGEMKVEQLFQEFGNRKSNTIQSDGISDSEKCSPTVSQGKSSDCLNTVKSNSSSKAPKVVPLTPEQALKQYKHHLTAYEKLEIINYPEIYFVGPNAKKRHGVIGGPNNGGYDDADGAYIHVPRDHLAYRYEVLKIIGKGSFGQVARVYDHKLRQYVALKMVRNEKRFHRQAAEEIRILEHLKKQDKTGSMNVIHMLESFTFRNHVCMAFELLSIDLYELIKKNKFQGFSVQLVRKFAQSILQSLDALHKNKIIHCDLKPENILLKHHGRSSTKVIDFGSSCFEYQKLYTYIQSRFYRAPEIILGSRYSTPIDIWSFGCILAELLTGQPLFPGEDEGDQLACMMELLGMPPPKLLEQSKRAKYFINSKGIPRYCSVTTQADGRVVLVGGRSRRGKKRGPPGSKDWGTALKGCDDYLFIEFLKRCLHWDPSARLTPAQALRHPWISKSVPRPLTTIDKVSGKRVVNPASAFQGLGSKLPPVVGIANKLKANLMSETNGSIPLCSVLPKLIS

[20] = biological target: DNA-dependent protein kinase catalytic subunit (Homo sapiens) (UniProt P78527); assay: Inhibition of human DNAPK at 100 nM using EPPLSQEAFADLWKK as substrate by [gamma-33P]-ATP assay
[21] = biological target: Serine/threonine-protein kinase BRSK2 (Homo sapiens) (UniProt Q8IWQ3); assay: Inhibition of human BRSK2 at 100 nM using KKLNRTLSFAEPG as substrate by [gamma-33P]-ATP assay
[22] = biological target: Dual specificity mitogen-activated protein kinase kinase 3 (Homo sapiens) (UniProt P46734); assay: Inhibition of human MEK3 at 100 nM using p38alpha as substrate by [gamma-33P]-ATP assay
Chain of Dual specificity mitogen-activated protein kinase kinase 3 (Homo sapiens) (P46734 whole entry): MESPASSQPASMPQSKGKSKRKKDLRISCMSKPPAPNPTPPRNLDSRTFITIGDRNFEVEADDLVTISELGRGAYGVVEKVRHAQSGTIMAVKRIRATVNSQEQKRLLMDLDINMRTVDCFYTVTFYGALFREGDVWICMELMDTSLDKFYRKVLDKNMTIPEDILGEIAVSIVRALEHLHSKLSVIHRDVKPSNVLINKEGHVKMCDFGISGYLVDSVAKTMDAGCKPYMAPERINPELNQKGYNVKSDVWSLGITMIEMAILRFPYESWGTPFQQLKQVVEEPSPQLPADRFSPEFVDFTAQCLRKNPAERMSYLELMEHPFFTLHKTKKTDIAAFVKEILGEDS

[23] = biological target: Tyrosine-protein kinase Blk (Homo sapiens) (UniProt P51451); assay: Inhibition of human BLK at 100 nM using poly[Glu:Tyr](4:1) as substrate by [gamma-33P]-ATP assay
[24] = biological target: Protein kinase C eta type (Homo sapiens) (UniProt P24723); assay: Inhibition of human PKCeta at 100 nM using ERMRPRKRQGSVRRRV as substrate by [gamma-33P]-ATP assay
[25] = biological target: Dual specificity tyrosine-phosphorylation-regulated kinase 2 (Homo sapiens) (UniProt Q92630); assay: Inhibition of human DYRK2 at 100 nM using RRRFRPASPLRGPPK as substrate by [gamma-33P]-ATP assay
[26] = biological target: Tyrosine-protein kinase Tec (Homo sapiens) (UniProt P42680); assay: Inhibition of human TEC at 100 nM using poly[Glu:Tyr] (4:1) as substrate by [gamma-33P]-ATP assay
[27] = biological target: Serine/threonine-protein kinase 38 (Homo sapiens) (UniProt Q15208); assay: Inhibition of human STK38 at 100 nM using KKRNRRLSVA as substrate by [gamma-33P]-ATP assay
[28] = biological target: Serine/threonine-protein kinase pim-1 (Homo sapiens) (UniProt P11309); assay: Inhibition of human PIM1 at 100 nM using KKRNRTLTK as substrate by [gamma-33P]-ATP assay
[29] = biological target: Serine/threonine-protein kinase PAK 6 (Homo sapiens) (UniProt Q9NQU5); assay: Inhibition of human PAK6 at 100 nM using RRRLSFAEPG as substrate by [gamma-33P]-ATP assay
Chain of Serine/threonine-protein kinase PAK 6 (Homo sapiens) (Q9NQU5 whole entry, looked up): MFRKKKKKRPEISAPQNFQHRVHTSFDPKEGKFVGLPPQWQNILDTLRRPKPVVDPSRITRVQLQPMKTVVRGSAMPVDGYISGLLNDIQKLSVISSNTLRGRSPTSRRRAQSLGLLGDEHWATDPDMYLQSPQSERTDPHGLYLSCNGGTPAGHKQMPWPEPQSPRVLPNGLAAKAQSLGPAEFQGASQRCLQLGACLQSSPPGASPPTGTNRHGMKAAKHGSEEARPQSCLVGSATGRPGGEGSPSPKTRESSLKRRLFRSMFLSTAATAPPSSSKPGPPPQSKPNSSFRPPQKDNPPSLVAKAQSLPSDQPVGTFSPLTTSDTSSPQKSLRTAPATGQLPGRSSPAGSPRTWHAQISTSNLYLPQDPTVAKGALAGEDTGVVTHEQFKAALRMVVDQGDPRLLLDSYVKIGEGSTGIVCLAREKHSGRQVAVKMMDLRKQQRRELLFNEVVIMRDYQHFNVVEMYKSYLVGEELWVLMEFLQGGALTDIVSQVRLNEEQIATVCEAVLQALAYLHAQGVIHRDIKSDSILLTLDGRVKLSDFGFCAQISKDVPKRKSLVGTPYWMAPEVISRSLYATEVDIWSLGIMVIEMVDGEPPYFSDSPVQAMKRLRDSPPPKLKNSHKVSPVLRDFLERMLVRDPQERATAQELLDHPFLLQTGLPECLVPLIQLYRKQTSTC

[30] = biological target: Tyrosine-protein kinase ABL2 (Homo sapiens) (UniProt P42684); assay: Inhibition of human ABL2 at 100 nM using EAIYAAPFAKKK as substrate by [gamma-33P]-ATP assay
[31] = biological target: Serine/threonine-protein kinase Nek3 (Homo sapiens) (UniProt P51956); assay: Inhibition of human NEK3 at 100 nM using MBP as substrate by [gamma-33P]-ATP assay

## COc1ccc(N2C(=O)COc3ccc(-c4cnc(OC)c(NS(=O)(=O)c5ccc(F)cc5)c4)cc32)cc1
[1]
  inhibition: 0.27%
[2]
  inhibition: -6.39%
[3]
  inhibition: 1%
[4]
  inhibition: 0.08%
[5]
  inhibition: -3.9%
[6]
  inhibition: 1.46%
[7]
  inhibition: 2.83%
[8]
  inhibition: -7.8%
[9]
  inhibition: 0.84%
[10]
  inhibition: -9.98%
[11]
  inhibition: 2.43%
[12]
  inhibition: 14.2%
[13]
  inhibition: 2.8%
[14]
  inhibition: -3.87%
[15]
  inhibition: 10.8%
[16]
  inhibition: -3.79%
[17]
  inhibition: 16.8%
[18]
  inhibition: 10.4%
[19]
  inhibition: -8.14%
[20]
  inhibition: 74.4%
[21]
  inhibition: -1.64%
[22]
  inhibition: 1.4%
[23]
  inhibition: 27.5%
[24]
  inhibition: 18%
[25]
  inhibition: 3.05%
[26]
  inhibition: -4.06%
[27]
  inhibition: 4.17%
[28]
  inhibition: 19.4%
[29]
  inhibition: 2.76%
[30]
  inhibition: -2.65%
[31]
  inhibition: 10.8%
